Results: PMC3933419, “Synthesis and Properties of a Selective Inhibitor of Homeodomain–Interacting Protein Kinase 2 (HIPK2)” (PLoS ONE, 2014)

Columns and labels:
Assay in all cases: Kinase panel selectivity profiling
Type in all cases: biochemical
BRSK1 = BRSK1 (Homo sapiens, UniProt Q8TDC3); conditions: TBID 1 μM, 125 kinase panel, read-out: % activity of the enzyme
Excerpt: (§1) The source of HIPK2 and of all of the other protein kinases used for specificity assays is as described elsewhere.
(§2) Conditions for the activity assays of all other protein kinases tested in selectivity experiments are as described or referenced in [9].

Aurora A = Aurora A (Homo sapiens, UniProt O14965); conditions: TBID 1 μM, 125 kinase panel, read-out: % activity of the enzyme
Excerpt: as §1, §2

PIM1 = molecular target: T1, PIM1 (Homo sapiens, UniProt P11309)
T1 construct: The source of HIPK2 and of all of the other protein kinases used for specificity assays is as described elsewhere
Excerpt: as §1, §2

ZAP70 = ZAP70 (Homo sapiens, UniProt P43403); conditions: TBID 1 μM, 125 kinase panel, read-out: % activity of the enzyme
Excerpt: as §1, §2

PIM3 = PIM3 (Homo sapiens, UniProt Q86V86); conditions: TBID 1 μM, 125 kinase panel, read-out: % activity of the enzyme
Excerpt: as §1, §2

Src = Src (Homo sapiens, UniProt P12931); conditions: TBID 1 μM, 125 kinase panel, read-out: % activity of the enzyme
Excerpt: as §1, §2

IRAK4 = IRAK4 (Homo sapiens, UniProt Q9NWZ3); conditions: TBID 1 μM, 125 kinase panel, read-out: % activity of the enzyme
Excerpt: as §1, §2

CAMKKb = CAMKKb (Homo sapiens, UniProt Q96RR4)
Excerpt: as §1, §2

MAPKAP-K2 = MAPKAP-K2 (Homo sapiens, UniProt P49137); conditions: TBID 1 μM, 125 kinase panel, read-out: % activity of the enzyme
Excerpt: as §1, §2

DYRK3 = DYRK3 (Homo sapiens, UniProt O43781); conditions: TBID 1 μM, 125 kinase panel, read-out: % activity of the enzyme
Excerpt: as §1, §2

TSSK1 = TSSK1 (Homo sapiens, UniProt Q9BXA7); conditions: TBID 1 μM, 125 kinase panel, read-out: % activity of the enzyme
Excerpt: as §1, §2

PAK6 = PAK6 (Homo sapiens, UniProt Q9NQU5); conditions: TBID 1 μM, 125 kinase panel, read-out: % activity of the enzyme
Excerpt: as §1, §2

PHK = PHK (Homo sapiens, UniProt Q16816); conditions: TBID 1 μM, 125 kinase panel, read-out: % activity of the enzyme
Excerpt: as §1, §2

YES1 = YES1 (Homo sapiens, UniProt P07947); conditions: TBID 1 μM, 125 kinase panel, read-out: % activity of the enzyme
Excerpt: as §1, §2

MKK1 = MKK1 (Homo sapiens, UniProt Q02750); conditions: TBID 1 μM, 125 kinase panel, read-out: % activity of the enzyme
Excerpt: as §1, §2

RSK1 = RSK1 (Homo sapiens, UniProt Q15418); conditions: TBID 1 μM, 125 kinase panel, read-out: % activity of the enzyme
Excerpt: as §1, §2

MELK = MELK (Homo sapiens, UniProt Q14680); conditions: TBID 1 μM, 125 kinase panel, read-out: % activity of the enzyme
Excerpt: as §1, §2

CDK2-Cyclin A = CDK2-Cyclin A (Homo sapiens, UniProt P24941); conditions: TBID 1 μM, 125 kinase panel, read-out: % activity of the enzyme
Excerpt: as §1, §2

Aurora B = Aurora B (Homo sapiens, UniProt Q96GD4); conditions: TBID 1 μM, 125 kinase panel, read-out: % activity of the enzyme
Excerpt: as §1, §2

CSK = CSK (Homo sapiens, UniProt P41240); conditions: TBID 1 μM, 125 kinase panel, read-out: % activity of the enzyme
Excerpt: as §1, §2

LKB1 = LKB1 (Homo sapiens, UniProt Q15831); conditions: TBID 1 μM, 125 kinase panel, read-out: % activity of the enzyme
Excerpt: as §1, §2

PKCz = PKCz (Homo sapiens, UniProt Q05513); conditions: TBID 1 μM, 125 kinase panel, read-out: % activity of the enzyme
Excerpt: as §1, §2

MPSK1 = MPSK1 (Homo sapiens, UniProt O75716); conditions: TBID 1 μM, 125 kinase panel, read-out: % activity of the enzyme
Excerpt: as §1, §2

EF2K = EF2K (Homo sapiens, UniProt O00418); conditions: TBID 1 μM, 125 kinase panel, read-out: % activity of the enzyme
Excerpt: as §1, §2

PIM2 = PIM2 (Homo sapiens, UniProt Q9P1W9); conditions: TBID 1 μM, 125 kinase panel, read-out: % activity of the enzyme
Excerpt: as §1, §2

p38g MAPK = p38g MAPK (Homo sapiens, UniProt P53778); conditions: TBID 1 μM, 125 kinase panel, read-out: % activity of the enzyme
Excerpt: as §1, §2

STK33 = STK33 (Homo sapiens, UniProt Q9BYT3); conditions: TBID 1 μM, 125 kinase panel, read-out: % activity of the enzyme
Excerpt: as §1, §2

TIE2 = TIE2 (Homo sapiens, UniProt Q02763); conditions: TBID 1 μM, 125 kinase panel, read-out: % activity of the enzyme
Excerpt: as §1, §2

SGK1 = SGK1 (Homo sapiens, UniProt O00141); conditions: TBID 1 μM, 125 kinase panel, read-out: % activity of the enzyme
Excerpt: as §1, §2

MARK4 = MARK4 (Homo sapiens, UniProt Q96L34); conditions: TBID 1 μM, 125 kinase panel, read-out: % activity of the enzyme
Excerpt: as §1, §2

PLK1 = PLK1 (Homo sapiens, UniProt P53350); conditions: TBID 1 μM, 125 kinase panel, read-out: % activity of the enzyme
Excerpt: as §1, §2

ASK1 = ASK1 (Homo sapiens, UniProt Q99683); conditions: TBID 1 μM, 125 kinase panel, read-out: % activity of the enzyme
Excerpt: as §1, §2

MNK1 = MNK1 (Homo sapiens, UniProt Q9BUB5); conditions: TBID 1 μM, 125 kinase panel, read-out: % activity of the enzyme
Excerpt: as §1, §2

MSK1 = MSK1 (Homo sapiens, UniProt O75582); conditions: TBID 1 μM, 125 kinase panel, read-out: % activity of the enzyme
Excerpt: as §1, §2

PDK1 = PDK1 (Homo sapiens, UniProt O15530); conditions: TBID 1 μM, 125 kinase panel, read-out: % activity of the enzyme
Excerpt: as §1, §2

GCK = GCK (Homo sapiens, UniProt Q12851); conditions: TBID 1 μM, 125 kinase panel, read-out: % activity of the enzyme
Excerpt: as §1, §2

PKBb = PKBb (Homo sapiens, UniProt P31751); conditions: TBID 1 μM, 125 kinase panel, read-out: % activity of the enzyme
Excerpt: as §1, §2

NUAK1 = NUAK1 (Homo sapiens, UniProt O60285); conditions: TBID 1 μM, 125 kinase panel, read-out: % activity of the enzyme
Excerpt: as §1, §2

MKK6 = MKK6 (Homo sapiens, UniProt P52564); conditions: TBID 1 μM, 125 kinase panel, read-out: % activity of the enzyme
Excerpt: as §1, §2

GSK3b = GSK3b (Homo sapiens, UniProt P49841); conditions: TBID 1 μM, 125 kinase panel, read-out: % activity of the enzyme
Excerpt: as §1, §2

TrkA = TrkA (Homo sapiens, UniProt P04629); conditions: TBID 1 μM, 125 kinase panel, read-out: % activity of the enzyme
Excerpt: as §1, §2

[1] = TBID 1 μM, 125 kinase panel, read-out: % activity of the enzyme

CAMKKb, sequence (Q96RR4 whole entry): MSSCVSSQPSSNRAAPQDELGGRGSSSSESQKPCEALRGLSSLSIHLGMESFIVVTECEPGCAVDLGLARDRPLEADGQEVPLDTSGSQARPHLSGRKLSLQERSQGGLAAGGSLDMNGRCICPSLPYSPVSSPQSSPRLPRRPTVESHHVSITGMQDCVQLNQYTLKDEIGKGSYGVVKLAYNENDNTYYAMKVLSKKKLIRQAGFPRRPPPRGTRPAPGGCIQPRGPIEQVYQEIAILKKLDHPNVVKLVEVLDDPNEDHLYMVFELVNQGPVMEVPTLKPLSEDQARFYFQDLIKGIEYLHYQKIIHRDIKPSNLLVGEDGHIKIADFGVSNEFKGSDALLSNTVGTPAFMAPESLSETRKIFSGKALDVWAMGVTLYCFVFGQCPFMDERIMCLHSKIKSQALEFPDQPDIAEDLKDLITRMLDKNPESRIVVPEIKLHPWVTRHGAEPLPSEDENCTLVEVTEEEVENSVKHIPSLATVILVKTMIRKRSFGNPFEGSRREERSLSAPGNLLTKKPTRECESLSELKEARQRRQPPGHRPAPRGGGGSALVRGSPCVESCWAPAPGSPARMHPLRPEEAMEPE
T1 sequence (P11309 whole entry, species assumed): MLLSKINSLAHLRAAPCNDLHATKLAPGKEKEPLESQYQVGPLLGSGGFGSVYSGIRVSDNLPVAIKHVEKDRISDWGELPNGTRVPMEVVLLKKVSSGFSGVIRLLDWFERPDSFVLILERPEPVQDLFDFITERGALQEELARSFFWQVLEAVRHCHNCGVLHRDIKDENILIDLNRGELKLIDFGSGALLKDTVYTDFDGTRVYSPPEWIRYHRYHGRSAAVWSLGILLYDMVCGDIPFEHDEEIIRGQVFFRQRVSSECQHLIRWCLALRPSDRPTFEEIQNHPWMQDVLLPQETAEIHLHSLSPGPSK
STK33, sequence (Q9BYT3 whole entry): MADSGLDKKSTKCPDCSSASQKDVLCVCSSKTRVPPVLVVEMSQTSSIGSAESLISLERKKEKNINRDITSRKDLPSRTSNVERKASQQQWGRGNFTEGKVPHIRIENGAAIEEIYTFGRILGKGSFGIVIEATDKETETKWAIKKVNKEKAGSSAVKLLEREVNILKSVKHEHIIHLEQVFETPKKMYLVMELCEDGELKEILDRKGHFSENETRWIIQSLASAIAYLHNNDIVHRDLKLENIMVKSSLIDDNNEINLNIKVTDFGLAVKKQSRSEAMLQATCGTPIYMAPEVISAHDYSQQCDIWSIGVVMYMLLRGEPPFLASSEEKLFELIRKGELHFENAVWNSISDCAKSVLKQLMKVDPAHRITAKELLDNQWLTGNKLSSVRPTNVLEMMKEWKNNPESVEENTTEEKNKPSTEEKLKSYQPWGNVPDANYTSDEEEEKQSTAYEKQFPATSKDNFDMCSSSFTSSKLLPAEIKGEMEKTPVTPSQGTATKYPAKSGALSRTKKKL
Aurora A, sequence (O14965 whole entry): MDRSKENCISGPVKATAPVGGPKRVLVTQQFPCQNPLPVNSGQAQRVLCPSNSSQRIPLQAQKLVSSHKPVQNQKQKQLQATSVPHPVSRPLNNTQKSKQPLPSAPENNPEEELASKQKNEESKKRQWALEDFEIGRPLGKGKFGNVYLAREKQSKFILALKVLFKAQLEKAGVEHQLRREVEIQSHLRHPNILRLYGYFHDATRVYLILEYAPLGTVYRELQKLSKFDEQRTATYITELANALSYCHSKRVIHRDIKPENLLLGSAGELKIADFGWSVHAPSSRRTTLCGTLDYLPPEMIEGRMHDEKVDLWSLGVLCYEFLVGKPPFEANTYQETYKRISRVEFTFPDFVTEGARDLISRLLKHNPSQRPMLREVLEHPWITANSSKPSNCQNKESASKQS
MSK1, sequence (O75582 whole entry): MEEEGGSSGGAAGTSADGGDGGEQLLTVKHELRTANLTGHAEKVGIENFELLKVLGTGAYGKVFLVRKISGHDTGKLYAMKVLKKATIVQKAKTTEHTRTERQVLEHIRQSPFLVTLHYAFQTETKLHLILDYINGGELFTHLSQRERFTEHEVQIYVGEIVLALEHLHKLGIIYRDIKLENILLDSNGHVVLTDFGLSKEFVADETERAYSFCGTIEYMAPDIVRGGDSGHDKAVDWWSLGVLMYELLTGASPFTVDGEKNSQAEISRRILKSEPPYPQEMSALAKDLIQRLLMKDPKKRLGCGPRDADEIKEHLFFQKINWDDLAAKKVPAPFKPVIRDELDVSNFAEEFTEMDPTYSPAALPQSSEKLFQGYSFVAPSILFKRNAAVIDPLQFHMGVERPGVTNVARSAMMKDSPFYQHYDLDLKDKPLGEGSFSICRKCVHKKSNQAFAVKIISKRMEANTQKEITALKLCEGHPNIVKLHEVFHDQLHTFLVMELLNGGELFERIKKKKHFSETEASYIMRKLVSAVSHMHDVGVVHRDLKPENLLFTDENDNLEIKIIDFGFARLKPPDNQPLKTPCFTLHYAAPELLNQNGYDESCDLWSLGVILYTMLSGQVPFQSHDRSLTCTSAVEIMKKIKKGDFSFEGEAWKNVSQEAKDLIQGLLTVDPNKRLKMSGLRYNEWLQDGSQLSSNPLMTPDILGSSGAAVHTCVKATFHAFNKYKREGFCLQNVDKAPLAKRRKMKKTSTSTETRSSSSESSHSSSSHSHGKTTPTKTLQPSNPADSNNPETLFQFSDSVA
p38g MAPK, sequence (P53778 whole entry): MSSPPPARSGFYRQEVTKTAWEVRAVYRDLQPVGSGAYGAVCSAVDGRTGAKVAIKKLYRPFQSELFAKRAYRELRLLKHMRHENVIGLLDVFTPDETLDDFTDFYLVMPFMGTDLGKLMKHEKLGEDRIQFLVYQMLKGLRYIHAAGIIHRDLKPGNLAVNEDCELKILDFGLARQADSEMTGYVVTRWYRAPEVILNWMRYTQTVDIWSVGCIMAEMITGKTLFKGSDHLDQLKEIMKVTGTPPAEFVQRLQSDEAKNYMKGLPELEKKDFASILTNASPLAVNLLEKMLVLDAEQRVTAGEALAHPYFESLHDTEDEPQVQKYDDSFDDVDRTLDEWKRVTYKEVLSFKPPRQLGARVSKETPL
BRSK1, sequence (Q8TDC3 whole entry): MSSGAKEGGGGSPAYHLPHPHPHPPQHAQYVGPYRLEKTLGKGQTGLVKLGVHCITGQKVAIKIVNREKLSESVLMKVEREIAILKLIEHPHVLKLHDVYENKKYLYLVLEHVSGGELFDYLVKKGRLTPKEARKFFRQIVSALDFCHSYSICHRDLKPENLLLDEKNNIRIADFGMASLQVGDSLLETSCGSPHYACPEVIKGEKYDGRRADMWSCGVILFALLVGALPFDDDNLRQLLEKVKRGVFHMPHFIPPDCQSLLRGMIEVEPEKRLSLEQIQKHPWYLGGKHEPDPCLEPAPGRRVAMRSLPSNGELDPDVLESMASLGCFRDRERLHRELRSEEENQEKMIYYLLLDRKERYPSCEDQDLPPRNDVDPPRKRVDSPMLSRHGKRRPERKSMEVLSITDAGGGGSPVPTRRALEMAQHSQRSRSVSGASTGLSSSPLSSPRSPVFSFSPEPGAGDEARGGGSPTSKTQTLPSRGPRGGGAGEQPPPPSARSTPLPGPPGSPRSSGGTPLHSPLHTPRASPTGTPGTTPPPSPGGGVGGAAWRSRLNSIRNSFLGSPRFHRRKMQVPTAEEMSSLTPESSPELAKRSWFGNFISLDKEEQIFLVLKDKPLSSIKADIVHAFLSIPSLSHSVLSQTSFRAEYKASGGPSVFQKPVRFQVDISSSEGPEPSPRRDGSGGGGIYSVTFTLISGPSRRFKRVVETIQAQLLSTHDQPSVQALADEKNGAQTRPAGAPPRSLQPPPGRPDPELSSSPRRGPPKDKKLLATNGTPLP
NUAK1, sequence (O60285 whole entry): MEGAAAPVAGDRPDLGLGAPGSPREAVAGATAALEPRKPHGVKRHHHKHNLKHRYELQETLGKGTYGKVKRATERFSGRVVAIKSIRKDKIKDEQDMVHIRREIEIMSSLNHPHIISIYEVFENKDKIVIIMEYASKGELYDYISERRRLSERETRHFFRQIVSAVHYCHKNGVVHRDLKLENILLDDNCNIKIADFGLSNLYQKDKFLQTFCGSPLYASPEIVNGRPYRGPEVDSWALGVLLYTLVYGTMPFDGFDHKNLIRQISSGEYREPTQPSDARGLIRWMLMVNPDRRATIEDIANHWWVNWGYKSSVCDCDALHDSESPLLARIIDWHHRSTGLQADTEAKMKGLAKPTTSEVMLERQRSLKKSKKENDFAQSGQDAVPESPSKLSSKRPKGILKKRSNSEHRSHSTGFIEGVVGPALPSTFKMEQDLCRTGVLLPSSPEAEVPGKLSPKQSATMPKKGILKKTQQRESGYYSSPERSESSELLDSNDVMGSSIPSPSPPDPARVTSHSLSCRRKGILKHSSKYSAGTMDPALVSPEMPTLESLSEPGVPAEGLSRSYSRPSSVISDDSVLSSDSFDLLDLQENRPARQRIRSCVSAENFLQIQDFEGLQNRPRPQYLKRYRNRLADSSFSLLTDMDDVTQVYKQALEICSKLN

O=C1c2c(Br)c(Br)c(Br)c(Br)c2C(=O)N1c1ncc[nH]1 [TBID, 4,5,6,7-Tetrabromo-2-(1H-imidazol-2-yl)isoindoline-1,3-dione]
activity at 1 µM (BRSK1): 110% | activity at 1 µM (Aurora A): 101% | residual activity (PIM1; 10 µM TBID, panel of 76 protein kinases): entirely unaffected | activity at 1 µM (PIM1; [1]): 104% | activity at 1 µM (ZAP70): 91% | activity at 1 µM (PIM3): 101% | activity at 1 µM (Src): 83% | activity at 1 µM (IRAK4): 101% | remaining activity at 10 µM (CAMKKb; 10 µM TBID, panel of 76 protein kinases, read-out: residual activity): 34% | activity at 1 µM (CAMKKb; [1]): 75% | activity at 1 µM (MAPKAP-K2): 119% | activity at 1 µM (DYRK3): 101% | activity at 1 µM (TSSK1): 109% | activity at 1 µM (PAK6): 102% | activity at 1 µM (PHK): 116% | activity at 1 µM (YES1): 110% | activity at 1 µM (MKK1): 115% | activity at 1 µM (RSK1): 93% | activity at 1 µM (MELK): 110% | activity at 1 µM (CDK2-Cyclin A): 98% | activity at 1 µM (Aurora B): 106% | activity at 1 µM (CSK): 89% | activity at 1 µM (LKB1): 102% | activity at 1 µM (PKCz): 104% | activity at 1 µM (MPSK1): 93% | activity at 1 µM (EF2K): 111% | activity at 1 µM (PIM2): 101% | activity at 1 µM (p38g MAPK): 101% | activity at 1 µM (STK33): 111% | activity at 1 µM (TIE2): 115% | activity at 1 µM (SGK1): 98% | activity at 1 µM (MARK4): 95% | activity at 1 µM (PLK1): 83% | activity at 1 µM (ASK1): 126% | activity at 1 µM (MNK1): 106% | activity at 1 µM (MSK1): 89% | activity at 1 µM (PDK1): 97% | activity at 1 µM (GCK): 100% | activity at 1 µM (PKBb): 104% | activity at 1 µM (NUAK1): 81% | activity at 1 µM (MKK6): 90% | activity at 1 µM (GSK3b): 94% | activity at 1 µM (TrkA): 100%
